Data: paper PMC10054553, “Development of the First ^18F-Labeled Radiohybrid-Based Minigastrin Derivative with High Target Affinity and Tumor Accumulation by Substitution of the Chelating Moiety” (Pharmaceutics, 2023)
Where two headings read alike, the source gives them in different places.

How the values were obtained:
CCK-2R = target: T1, CCK-2R (Rattus norvegicus, UniProt P30553); parameters: method as in earlier work; conditions: natLu-labeled peptide; AR42J cells, [177Lu]Lu-DOTA-PP-F11N 0.3 pmol/well, 3 h, 37 °C, n = 3; identical conditions; cited from earlier work
T1 construct: CCK-2R-expressing rat pancreatic cancer cells AR42J; host or cells: AR42J (rat pancreatic cancer cells)
T1 sequence (P30553 1-452): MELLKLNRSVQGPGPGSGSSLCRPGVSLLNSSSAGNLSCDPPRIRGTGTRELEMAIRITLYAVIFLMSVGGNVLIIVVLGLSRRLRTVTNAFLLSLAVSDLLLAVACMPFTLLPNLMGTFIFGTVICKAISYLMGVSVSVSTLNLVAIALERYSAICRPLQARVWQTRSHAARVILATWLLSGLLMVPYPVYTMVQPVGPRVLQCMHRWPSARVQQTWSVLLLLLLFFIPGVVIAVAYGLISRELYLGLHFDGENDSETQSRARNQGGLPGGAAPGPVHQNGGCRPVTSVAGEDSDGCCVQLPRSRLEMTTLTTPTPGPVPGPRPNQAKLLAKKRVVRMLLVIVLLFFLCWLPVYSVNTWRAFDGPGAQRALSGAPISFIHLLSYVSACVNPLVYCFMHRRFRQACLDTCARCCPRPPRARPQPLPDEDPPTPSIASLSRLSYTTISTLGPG

[1] = µPET/CT imaging in an AR42J tumor-bearing mouse; assay type: in vivo, mice; conditions: 100 pmol, n = 1
Experimental: Biodistribution studies (n = 4) and µSPECT/CT as well as µPET/CT imaging (using a MILabs VECTor^4 small-animal SPECT/PET/OI/CT device, MILabs, Utrecht, The Netherlands) at 1 and 24 h p.i. were carried out as previously published. For all ^177Lu-labeled compounds, approximately 2–3 MBq (100 pmol)—and for the ^18F-labeled analog, approximately 7 MBq (100 pmol)—were administered. For all competition studies, 2.90 mg/kg (40 nmol) of [^natLu]Lu-DOTA-MGS5 (10^−3 M in phosphate-buffered saline) were co-administered.
Moreover, the chemically identical compound, [^18F]F-[^natLu]Lu-DOTA-rhCCK-18, was evaluated via µPET/CT in a AR42J tumor-bearing mouse (n = 1), which confirmed high tumor and kidney uptake at 1 h p.i. and low overall off-target accumulation (Figure 5, right).
Figure 5 Representative µSPECT/CT images of [^177Lu]Lu-DOTA-rhCCK-18 at 1 and 24 h p.i. (left) and µPET/CT image of [^18F]F-[^natLu]Lu-DOTA-rhCCK-18 at 1 h p.i. (right) in AR42J tumor-bearing CB17- SCID mice (100 pmol each). Tumors (T) are indicated by white arrows. Kidney (K) and tumor (T) values are depicted at the bottom. TEXT PRINTED IN THE PICTURE: [^177Lu]Lu-DOTA-rhCCK-18: T: 24.1 %ID/g (1 h p.i.); K: 97.2 %ID/g (1 h p.i.); T: 25.4 %ID/g (24 h p.i.); K: 134 %ID/g (24 h p.i.) | [^18F]F-[^natLu]Lu-DOTA-rhCCK-18: T: 31.2 %ID/g (1 h p.i.); K: 146 %ID/g (1 h p.i.)

[2] = Lipophilicity (logD7.4), n-octanol/PBS pH 7.4; assay type: physicochemical
Experimental: Cell-based experiments and determination of lipophilicity (logD7.4) were performed as previously published. A detailed description of the in vitro experiments is provided in the Supplementary Materials.
Cell Culture. CCK-2R-expressing rat pancreatic cancer cells AR42J (CLS GmbH, Eppelheim, Germany) were cultivated in monolayers in CELLSTAR® cell culture flasks acquired from Greiner Bio-One GmbH (Frickenhausen, Germany) at 37°C in a humidified atmosphere (5% CO2) using a HERAcell 150i-Incubator (Thermo Fisher Scientific Inc., Waltham, United States). The nutrient medium RPMI 1640 medium, supplemented with 5 mM L-Gln 5 mL non-essential amino acids (100×) and 10% FCS, was used. Furthermore, a Dulbecco’s PBS solution with 0.1% EDTA (v/v) was applied to detach the cells for cell passaging. The detached cells were counted using a Neubauer hemocytometer (Paul Marienfeld, Lauda-Königshofen, Germany). In addition, all operations under sterile conditions were accomplished using a MSC-Advantage safety workbench (Thermo Fisher Scientific Inc., Waltham, United States).
Determination of IC50. AR42J cells (2.0 × 10^5 cells/well) were seeded into 24-well plates 24 ± 2 h prior to testing using 1 mL of nutrient medium (RPMI 1640, 5 mM L-Gln, 5 mL non-essential amino acids (100×), 10% FCS). Cells were incubated at 37°C in a humidified atmosphere (5% CO2).
After the removal of the medium, each well was washed with 500 μL PBS. For the cell-based assay, 200 μL of the nutrient medium (+5% BSA), [ 177Lu]Lu-DOTA-PP-F11N (25 μL, 0.3 pmol) as a radiolabeled reference and 25 μL of the peptide of interest in increasing concentrations (10 −10 to 10−4 M) were added to the cells in triplicate. Thereafter, the assay was incubated for 3 h at 37°C and the supernatant was collected. The cells were washed with 300 μL PBS and the collected supernatant fractions were unified.
After lysis of the cells with NaOH (300 μL, 1 N) for 15 min, the respective wells were washed with NaOH (300 μ L, 1 N) and both fractions were unified. The radioactivity of both the supernatant and the lysed fractions were quantified using a γ-counter (PerkinElmer Inc., Waltham, United States). The obtained data were evaluated via the GraphPad PRISM software (GraphPad Software Inc., La Jolla, United States), which calculates the half-maximal inhibitory concentration (IC50) of the peptides.
Internalization Studies. For the determination of the internalization kinetics of the various peptides, AR42J cells (3.0 × 10^5 cells/well) were seeded into polylysine-coated 24-well plates, adding 1 mL of nutrient medium. Afterwards, the cells were incubated for 24 ± 2 h at 37°C in a humidified atmosphere […]
On the day of the experiment, the medium was removed, and each well was washed with nutrient medium (300 μL). Afterwards 200 μL of nutrient medium, 25 μL of the 177Lu-labeled peptide (0.3 pmol, n = 6) and either 25 μL of nutrient medium for internalization studies ( n = 3) or 25 μL of [natLu]Lu-DOTA-PP-F11N (10 μmol) for competition studies ( n = 3) were added. Thereafter, the assay was incubated for various time points (1, 2, 4 and 6 h) at 37°C in a humidified atmosphere (5% CO2). After incubation, the cells were put on ice for at least 1 min to stop internalization kinetics and the supernatant was collected. Then, the cells were washed with an ice-cold nutrient medium (300 μL) and both fractions were unified. […] The radioactivity of the supernatant, the acid wash and the lysed fractions were quantified using a γ-counter. […]

[3] = Stability studies in human serum; assay type: in vitro ADME; conditions: 37 °C; for SiOH-containing analog (%): 24 h, n = 3, analog with hydrolyzed SiFA moiety; for remaining at 24 h, 5 µM: human, n = 3, read-out: Intact peptide (%)
Experimental: In vitro stability studies in human serum after incubation at 37 °C for 24 h were performed as described in the Supplemental Material.
Stability Studies in Human Serum. The 177Lu- as well as 67Ga-labeled CCK-2R ligands (1 nmol,
approx. 5 MBq) were incubated for 24 h in human serum (200 μL) at 37 °C. After incubation, ice-cold
EtOH (125 μL) and MeCN (375 μL) were added and the suspension was centrifuged for 5 min at
5000 rpm. Then, the supernatant was transferred into new vials and centrifuged for another 5 min at
5000 rpm. After separating the precipitate from the solution, the stability of the ligands was determined

CCCC[C@H](NC(=O)[C@H](Cc1c[nH]c2ccccc12)NC(=O)CNC(=O)[C@H](Cc1ccc(O)cc1)NC(=O)[C@H](C)NC(=O)CC[C@@H](NC(=O)CC[C@@H](NC(=O)CC[C@@H](NC(=O)CC[C@@H](NC(=O)CC[C@@H](NC(=O)CC[C@@H](NC(=O)CC[C@@H](NC(=O)CC[C@@H](NC(=O)[C@@H](CNC(=O)c1ccc([Si](F)(C(C)(C)C)C(C)(C)C)cc1)NC(=O)CC[C@H](C(=O)O)N1CCN(CC(=O)O)CCN(CC(=O)O)CCN(CC(=O)O)CC1)C(=O)O)C(=O)O)C(=O)O)C(=O)O)C(=O)O)C(=O)O)C(=O)O)C(=O)O)C(=O)N[C@@H](CC(=O)O)C(=O)N[C@@H](Cc1ccccc1)C(N)=O [(R)-DOTAGA-rhCCK-18]
IC50 (CCK-2R): 20.4 ± 2 nM

CCCC[C@H](NC(=O)[C@H](Cc1c[nH]c2ccccc12)NC(=O)CNC(=O)[C@H](Cc1ccc(O)cc1)NC(=O)[C@H](C)NC(=O)CC[C@@H](NC(=O)CC[C@@H](NC(=O)CC[C@@H](NC(=O)CC[C@@H](NC(=O)CC[C@@H](NC(=O)CC[C@@H](NC(=O)CC[C@@H](NC(=O)CC[C@@H](NC(=O)[C@@H](CNC(=O)c1ccc([Si](F)(C(C)(C)C)C(C)(C)C)cc1)NC(=O)CN1CCN(CC(=O)O)CCN(CC(=O)O)CCN(CC(=O)O)CC1)C(=O)O)C(=O)O)C(=O)O)C(=O)O)C(=O)O)C(=O)O)C(=O)O)C(=O)O)C(=O)N[C@@H](CC(=O)O)C(=O)N[C@@H](Cc1ccccc1)C(N)=O [[^18F]F-[^natLu]Lu-DOTA-rhCCK-18, metal not drawn]
tissue uptake at 1 h ([1]; CB17-SCID, mouse, kidney, total radioactivity, 1 h p.i., read-out: Kidney (K) value, µPET/CT): 146 %ID/g | tissue uptake at 1 h ([1]; CB17-SCID, mouse, tumor, total radioactivity, 1 h p.i., read-out: Tumor (T) value, µPET/CT): 31.2 %ID/g | tissue uptake at 1 h ([1]; bone, µPET/CT mouse, read-out: bone uptake): 1.69 %ID/g

CCCC[C@H](NC(=O)[C@H](Cc1c[nH]c2ccccc12)NC(=O)CNC(=O)[C@H](Cc1ccc(O)cc1)NC(=O)[C@H](C)NC(=O)CC[C@@H](NC(=O)CC[C@@H](NC(=O)CC[C@@H](NC(=O)CC[C@@H](NC(=O)CC[C@@H](NC(=O)CC[C@@H](NC(=O)CC[C@@H](NC(=O)CC[C@@H](NC(=O)[C@@H](CNC(=O)c1ccc([Si](F)(C(C)(C)C)C(C)(C)C)cc1)NC(=O)CN1CCN(CC(=O)O)CCN(CC(=O)O)CCN(CC(=O)O)CC1)C(=O)O)C(=O)O)C(=O)O)C(=O)O)C(=O)O)C(=O)O)C(=O)O)C(=O)O)C(=O)N[C@@H](CC(=O)O)C(=O)N[C@@H](Cc1ccccc1)C(N)=O [[^18F]F-[^natLu]Lu-DOTA-rhCCK-18] [metal not drawn]
logD7.4 ([2]; n-octanol/PBS pH 7.4): −2.71 ± 0.04

CCCC[C@H](NC(=O)[C@H](Cc1c[nH]c2ccccc12)NC(=O)CNC(=O)[C@H](Cc1ccc(O)cc1)NC(=O)[C@H](C)NC(=O)CC[C@@H](NC(=O)CC[C@@H](NC(=O)CC[C@@H](NC(=O)CC[C@@H](NC(=O)CC[C@@H](NC(=O)CC[C@@H](NC(=O)[C@@H](CNC(=O)c1ccc([Si](F)(C(C)(C)C)C(C)(C)C)cc1)NC(=O)CN1CCN(CC(=O)O)CCN(CC(=O)O)CCN(CC(=O)O)CC1)C(=O)O)C(=O)O)C(=O)O)C(=O)O)C(=O)O)C(=O)O)C(=O)N[C@@H](CC(=O)O)C(=O)N[C@@H](Cc1ccccc1)C(N)=O [[^67Ga]Ga-DOTA-rhCCK-16, metal not drawn]
SiOH-containing analog (%) ([3]; listed as [67Ga]Ga-DOTA-rhCCK-16): 56.5 ± 8.0% | remaining at 24 h, 5 µM [3]: 39.6 ± 7.9%

CCCC[C@H](NC(=O)[C@H](Cc1c[nH]c2ccccc12)NC(=O)CNC(=O)[C@H](Cc1ccc(O)cc1)NC(=O)[C@H](C)NC(=O)CC[C@@H](NC(=O)CC[C@@H](NC(=O)CC[C@@H](NC(=O)CC[C@@H](NC(=O)CC[C@@H](NC(=O)CC[C@@H](NC(=O)CC[C@@H](NC(=O)CC[C@@H](NC(=O)[C@@H](CNC(=O)c1ccc([Si](F)(C(C)(C)C)C(C)(C)C)cc1)NC(=O)CN1CCN(CC(=O)O)CCN(CC(=O)O)CCN(CC(=O)O)CC1)C(=O)O)C(=O)O)C(=O)O)C(=O)O)C(=O)O)C(=O)O)C(=O)O)C(=O)O)C(=O)N[C@@H](CC(=O)O)C(=O)N[C@@H](Cc1ccccc1)C(N)=O [[^67Ga]Ga-DOTA-rhCCK-18, metal not drawn]
SiOH-containing analog (%) [3]: 53.6 ± 6.6% | remaining at 24 h, 5 µM [3]: 43.7 ± 6.9%

CCCC[C@H](NC(=O)[C@H](Cc1c[nH]c2ccccc12)NC(=O)CNC(=O)[C@H](Cc1ccc(O)cc1)NC(=O)[C@H](C)NC(=O)[C@@H](CCC(=O)O)NC(=O)[C@@H](CCC(=O)O)NC(=O)[C@@H](CCC(=O)O)NC(=O)[C@@H](CCC(=O)O)NC(=O)[C@@H](CCC(=O)O)NC(=O)[C@@H](CCC(=O)O)NC(=O)CC[C@H](C(=O)O)N1CCN(CC(=O)O)CCN(CC(=O)O)CCN(CC(=O)O)CC1)C(=O)N[C@@H](CC(=O)O)C(=O)N[C@@H](Cc1ccccc1)C(N)=O [[^177Lu]Lu-(R)-DOTAGA-PP-F11N, metal not drawn]
logD ([2]; pH 7.4): -3.95 ± 0.06
